According to patent US20250134994A1, “IMMUNOGENIC MRNA DELIVERY VEHICLES” (Corner Therapeutics, Inc., priority 2022, published 2025):

What was measured:
Format in all cases: cell-based
canine PBMCs = test: IL-1β secretion by canine PBMCs (ELISA); conditions: two days in culture, R848 1 μg/mL, 22:0 LYSO PC 82.5 μM, concentration per mL and fold change per donor relative to R848 alone
Method: (§1) Isolation of PBMCs from Human and Canine Whole Blood. PBMCs were isolated from whole blood using density gradient centrifugation with Ficoll-Paque PLUS (Cytivia). Whole blood was diluted 1:1 with PBS, layered on top of Ficoll-Paque PLUS and centrifuged at 1000×g for 30 minutes at room temperature. PBMCs were collected, washed twice in PBS, and incubated with Ack lysis buffer (Lonza) to remove any remaining red blood cells.
(§2) Cell Culture and Stimulation. Immediately following isolation, PBMCs were plated in RPMI medium containing 10% FBS, 50 units/mL penicillin, […] streptomycin, 2 mM L-glutamine, 1 mM sodium pyruvate, and […] beta-mercaptoethanol (R10 media). […]
(§3) Endpoint Analyses. […] Half of the media volume in the wells was collected for cytokine quantification by Enzyme-Linked Immunosorbent Assay (ELISA) or Lumit™ Bioluminescent assay, while the remaining media and cells were used to quantify cell viability by assessing metabolic activity.
(§4) Quantification of Cytokine Secretion. IL-1β secretion from human PBMCs was assessed using one of the following kits: ELISA MAX Deluxe Set Human IL-1β kit (Biolegend), Invitrogen Human IL-1β kit, or the Lumit™ Human IL-1β Immunoassay (Promega). IFNγ secretion from human PBMCs was assessed using the ELISA MAX Deluxe Set Human IFNγ (Biolegend) and TNFα secretion from human PBMCs was assessed using the Human TNFα Uncoated ELISA kit (Invitrogen). […]

human PBMCs [1] = test: IFNγ secretion by human PBMCs (ELISA); conditions: two days post-hyperactivation
Method: as §1, §2, §3, §4

human PBMCs [2] = test: IL-1β secretion by human PBMCs (ELISA or Lumit); conditions: two days in culture, R848 1 μg/mL
Method: as §1, §2, §3, §4

| Compound | IL-1β secretion (canine PBMCs) | fold change per donor in IFNγ secretion relative to R848 alone (human PBMCs [1]) | IL-1β secretion (human PBMCs [2]) |
| --- | --- | --- | --- |
| Nc1nc2c(ncn2[C@@H]2O[C@@H]3COP(=O)(O)O[C@H]4[C@@H](O)[C@H](n5cnc6c(N)ncnc65)O[C@@H]4COP(=O)(O)O[C@@H]2[C@@H]3O)c(=O)[nH]1 [2′3′cGAMP, 2′3′ cGAMP, reference compound] | neither GM-CSF nor 2′3′cGAMP induced significant IL-1β secretion | neither GM-CSF nor 2′3′cGAMP elicited a substantial fold change | – |
| GM-CSF: human GM-CSF (Peprotech), innate agonist added at 10 ng/mL | neither GM-CSF nor 2′3′cGAMP induced significant IL-1β secretion | neither GM-CSF nor 2′3′cGAMP elicited a substantial fold change | did not induce levels of IL-1β secretion from human PBMCs significantly above background levels |
